Measurements reported in patent EP1270568A1, “1-methyl-4-(3-ethoxy-9h-thioxanthene-ylidene)-piperidine and its use as 5-HT2B and/or H1 antagonist” (Biofrontera Pharmaceuticals AG, priority 2001, dated 2003).

Legend:
human 5-HT2B receptor [1] = biological target: T1, human 5-HT2B receptor (Homo sapiens, UniProt P41595); assay: Cloned human 5-HT2B receptor binding assay ([3H]-5HT); design: expressed in transfected cells; host or cells: HEK 293 cells, transiently transfected; membrane preparation; settings: HEK 293 cells transiently transfected with human 5-HT2B receptor, [3H]5-HT 4 to 5 nM, 37°C 30 min; result in words only
T1 sequence (P41595 whole entry): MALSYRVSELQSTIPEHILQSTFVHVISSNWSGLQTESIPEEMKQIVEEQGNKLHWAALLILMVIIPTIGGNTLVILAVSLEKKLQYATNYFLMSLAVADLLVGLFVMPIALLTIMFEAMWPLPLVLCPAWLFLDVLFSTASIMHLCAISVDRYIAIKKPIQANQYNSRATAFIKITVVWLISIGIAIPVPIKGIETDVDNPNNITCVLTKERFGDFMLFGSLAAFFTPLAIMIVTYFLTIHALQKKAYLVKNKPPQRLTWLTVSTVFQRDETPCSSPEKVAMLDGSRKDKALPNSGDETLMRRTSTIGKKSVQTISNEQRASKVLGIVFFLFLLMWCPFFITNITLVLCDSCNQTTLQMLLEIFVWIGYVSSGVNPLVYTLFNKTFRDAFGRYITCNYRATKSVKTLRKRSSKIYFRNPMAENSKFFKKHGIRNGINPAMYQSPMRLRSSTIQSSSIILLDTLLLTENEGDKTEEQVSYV
Method: The following describes an in vitro binding assay utilizing cloned 5-HT2B receptors radiolabelled with [^3H]-5HT.
HEK 293 cells transiently transfected with an expression plasmid pXMD1-hu2B encoding the human 5-HT2B receptor (see Schmuck et al., FEBS Lett., 1994, 342, 85-90) were used as described previously (Schmuck et al., Eur. J. Pharmacol., 1996, 8, 959-967). Two days after transfection cells were harvested, pelleted at 500g for 5 min at 4°C, gently resuspended in ice-cold buffer1 (50 mM TRIS pH 7.7, 4 mM CaCl2) and homogenized using a Polytron PT 1200 tissue homogenizer (position 6 for 30 s). Cells were pelleted at 50,000g. 4°C for 10 min, washed with buffer1 and pelleted again. The final pellet was resuspended in incubation buffer (50 mM TRIS pH 7.7, 4 mM CaCl2, 10 µM pargyline and 0.1 % by weight ascorbic acid). The binding assay consisted of 300 µl of membrane suspension (protein concentration = 0.3 to 0.5 mg/ml), 150 µl of competing drug and 50 µl of [^3H]5-HT at a final concentration of 4 to 5 nM. The mixture was incubated at 37°C for 30 min and the assay terminated by rapid filtration and two washing steps with 5 ml of cold 20 mM Tris-HCl pH = 7.5, and 154 mM NaCl over Whatman GFB filters. Filters were counted by liquid scintillation. Non-specific binding was determined in the presence of an excess of 5-HT (100 µM). […] Results are expressed as pKi values. […]

human H1 receptor [2] = biological target: T2, human H1 receptor (Homo sapiens, UniProt P35367); assay: Human histamine H1 receptor functional assay ([3H]-inositol phosphate formation); type: cell-based; design: expressed in transfected cells; settings: transiently transfected HEK-293 cells, histamine-stimulated [3H]-inositol phosphate formation; result in words only
T2 sequence (P35367 whole entry): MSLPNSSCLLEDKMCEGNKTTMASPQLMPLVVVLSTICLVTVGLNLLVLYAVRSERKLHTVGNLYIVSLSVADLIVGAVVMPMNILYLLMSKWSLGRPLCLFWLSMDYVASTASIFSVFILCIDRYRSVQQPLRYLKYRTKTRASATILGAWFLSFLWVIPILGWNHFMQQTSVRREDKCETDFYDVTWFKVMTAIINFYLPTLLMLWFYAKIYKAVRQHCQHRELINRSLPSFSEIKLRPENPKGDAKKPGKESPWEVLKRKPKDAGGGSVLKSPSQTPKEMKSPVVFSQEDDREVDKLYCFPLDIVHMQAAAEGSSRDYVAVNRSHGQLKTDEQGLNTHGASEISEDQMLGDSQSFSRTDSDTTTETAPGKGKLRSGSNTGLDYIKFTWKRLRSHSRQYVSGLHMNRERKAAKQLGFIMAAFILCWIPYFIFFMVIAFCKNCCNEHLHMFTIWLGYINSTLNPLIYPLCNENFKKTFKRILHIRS
Method: For the measurement of the [^3H]-inositol phosphate formation transiently transfected HEK-293 cells were seeded in 24 well plates and labeled to equilibrium with myo-[2-^3H]-inositol (3 ìCi/ml) for an additional 24 hours in growth medium. The medium was aspirated and cells were washed once with 500 µl HBS-buffer (130 mM NaCl, 900 µM NaH2PO4, 800 µM MgSO4, 5.4 mM KCl, 1.8 mM CaCl2, 25 mM Glucose in 20 mM HEPES pH 7.4). Two min after applying 20 mM Li^+ the cells were stimulated by addition of histamine in HBS-buffer. The incubation was stopped by aspiration off the culture medium and the addition of cold 10 mM formic acid. [^3H]inositol phosphates were isolated by anion exchange chromatography (see Seuwen et al., 1988, EMBO J., 7, 161-168). The pKB value was calculated according to the formula: pKB = log (A'/A - 1) - log [B], where A'/A is the ratio of the agonist concentrations (EC50 in the presence / EC50 in the absence of antagonist) and [B] the concentration of antagonist.

human 5-HT2B receptor [3] = biological target: T1, human 5-HT2B receptor; assay: 5-HT2A, 5-HT2B, 5-HT2C receptor binding methods (counter screen for selectivity); design: expressed in transfected cells; host or cells: HEK293 cells; settings: HEK293 cells, [3H]-5HT approximately 0.4 nM, 120 min at 4°C; result in words only
Method: 5-HT2A receptors were labelled with [^3H]ketanserin in human cortex, in HEK293 cells expressing a cloned human 5-HT2A receptor and in HEK293 cells expressing the rat 5-HT2A receptor. For competition binding studies the ligand concentration was approximately 0.1 nM. For saturation binding studies concentrations of radioligand ranged from 0.01 nM to 2.0 nM. Assays were conducted in 0.5 ml of assay buffer (50 mM Tris-HCl, 4 mM calcium chloride, 0.1 % by weight ascorbic acid) (pH 7.4 at 4°C). Non-specifc binding was defined with […] unlabelled ketanserin. After a 60 min incubation at 32°C, membranes were harvested onto filters treated with 0.1 % by weight of polyethylenimine and the bound radioactivity was determined.
Human 5-HT2B receptors were labelled in HEK293 cells as described above. except that the radioligand was [^3H]-5HT and that the assay buffer contained pargyline in a concentration of 10 mM and 0.1 % by weight of ascorbic acid. […]
Competition radioligand binding data was analyzed using a four parameter logistic equation and iterative curve-fitting techniques to obtain estimates of the IC50 and Hill slope. Kd values, determined from saturation binding studies were then used to calculate inhibition dissociation constants (Ki).

5-HT2B receptor = biological target: T3, 5-HT2B receptor (Rattus norvegicus, UniProt P30994); assay: 5-HT2B receptor tissue based functional assay in rat stomach fundus longitudinal muscle; type: cell-based; settings: dextral shift of agonist concentration-response curve, result in words only
T3 construct: Strips of longitudinal muscle were obtained from the stomach fundus of male Sprague Dawley rats; from tissue; host or cells: rat stomach fundus longitudinal muscle strips (male Sprague Dawley)
T3 sequence (P30994 whole entry): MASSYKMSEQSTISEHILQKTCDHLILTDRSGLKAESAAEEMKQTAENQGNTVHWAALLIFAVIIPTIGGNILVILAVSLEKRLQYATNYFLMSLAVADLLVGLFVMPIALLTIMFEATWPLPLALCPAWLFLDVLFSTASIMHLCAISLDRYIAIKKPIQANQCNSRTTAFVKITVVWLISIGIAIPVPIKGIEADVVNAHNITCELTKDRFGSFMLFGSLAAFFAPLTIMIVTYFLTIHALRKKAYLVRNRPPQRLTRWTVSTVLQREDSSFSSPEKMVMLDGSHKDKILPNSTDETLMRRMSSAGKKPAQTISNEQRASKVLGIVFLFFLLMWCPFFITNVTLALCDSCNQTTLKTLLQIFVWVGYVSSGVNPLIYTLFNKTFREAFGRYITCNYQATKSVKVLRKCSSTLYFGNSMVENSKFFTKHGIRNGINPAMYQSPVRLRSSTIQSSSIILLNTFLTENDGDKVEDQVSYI
Method: The following describes an in vitro functional assay characterizing 5-HT receptors (the putative 5-HT2B) in rat stomach fundus longitudinal muscle (Baxter et al., Brit. J. Pharmacol. 1994, 112, 323-331).
Strips of longitudinal muscle were obtained from the stomach fundus of male Sprague Dawley rats. The mucosa was removed and the strips were suspended with a resting tension of 1 g in oxygenated (95% O2 /5% CO2) Tyrode solution at 37°C. The composition of the Tyrode solution was as follows (mM): NaCl 136.9; KCl 2.7; NaH2PO4 0.4; MgCl2 1.0; glucose 5.6; NaHCO3 11.9; CaCl2 1.8. […]
Effects of drugs were monitored by tension transducers and recorded on polygraph recorders. Tissue response was measured as changes in isometric tension (g). The mean potency (EC50) and maximum response were evaluated by standard iterative curve fitting procedures.
Effects of antagonists were determined by measuring dextral shifts to the agonist concentration-response curve after equilibration of the antagonists for at least 1 h. Concentration ratios were measured at half maximal response levels and single concentration antagonist affinities were determined by the equation: KB =(antagonist concentration)/(concentration ratio) [formula]

human H1 receptor [4] = biological target: T2, human H1 receptor; assay: Cloned human H1, H2, H3 (and H4) receptor binding assay ([3H]-mepyramine for H1); design: expressed in transfected cells; host or cells: COS-7 cells, transiently transfected; cell homogenates; settings: COS-7 cell homogenates, 1 nM [3H]-mepyramine, 30 min at 25°C; result in words only
Method: COS-7 cells were transiently transfected with an expression plasmid pCineohH1, pCineohH2, pCineohH3 and pCineohH4 encoding the human Histamine H1, H2 H3 or H4 receptor, respectively. Transfected cells were harvested after 48 h, homogenized in ice-cold 50 mM Na2/potassium phosphate buffer (pH 7.4) and used for radioligand binding studies. Cell homogenates (40 - 50 µg of protein) were incubated for 30 min at 25°C in 50 mM Na2/potassium phosphate buffer (pH 7.4) in 400 µl with the various concentrations of either [^3H]-mepyramine, [^3H]-thiotidine, [^3H]-R-α-Methylhistamine, and [^3H]-pyramilamine for cells expressing recombinant human H1, H2, H3 and H4 receptors, respectively. The nonspecific binding was defined in the presence of 1 µM mianserin. In displacement studies, cell homogenated were incubated either with 1 nM [^3H]-mepyramine, 15 nM [^3H]-thiotidine, 0.5 nM [^3H]-R-α-Methylhistamine, or 15 nM [^3H]-pyramilamine and increasing concentrations of competing ligands. The incubations were stopped by rapid dilution with 3 ml of ice-cold 50 mM Na2/potassium phosphate buffer (pH 7.4). The bound radioactivity was seperated by filatration through Whatman GF/C filters that had been treated with 0.3 % polyethyleneimine. Filters were washed twice in 3 ml of buffer and radioactivity retained on the filters was measured by liquid scinitllation counting. […]

CCOc1ccc2c(c1)Sc1ccccc1C2=C1CCN(C)CC1 [1-methyl-4-(3-ethoxy-9H-thioxanthene-9-ylidene)-piperidine]
affinity for the 5-HT2B receptor (human 5-HT2B receptor [1]): found to have affinity for the 5-HT2B receptor
antagonist at the human H1 receptor (human H1 receptor [2]): found to be an antagonist at the human H1 receptor
affinity for the 5-HT2B receptor (human 5-HT2B receptor [3]): found to have affinity for the 5-HT2B receptor
antagonist at the 5-HT2B receptor (5-HT2B receptor): found to be an antagonist at the 5-HT2B receptor
affinity for the human H1 receptor (human H1 receptor [4]): found to have affinity for the human H1 receptor
